pIC50: −log10 of the molar value.
Legend:
ABAE = assay: Cytotoxicity against bovine ABAE cells; assay type: functional, cell-based, Bos taurus
SK-BR-3 = assay: Cytotoxicity against human SKBR3 cells; assay type: functional, cell-based
HCT-116 = assay: Cytotoxicity against human HCT116 cells; assay type: functional, cell-based
A2780 = assay: Cytotoxicity against human A2780 cells; assay type: functional, cell-based

`O=c1c2c(O)cccc2oc2ccc3c(c12)CC(C(O)(CO)CCl)O3` (configuration not stated) [PSOROXANTHIN CHLOROHYDRIN] showed a pIC50 (ABAE) of 8.40, a pIC50 (SK-BR-3) of 5.70 and a pIC50 (HCT-116) of 7.17. The pIC50 (A2780) was 7.38.

`O=c1c2c(O)cccc2oc2ccc3c(c12)CC(C1(CO)CO1)O3` (configuration not stated) [PSOROXANTHIN] was tested, and the pIC50 (ABAE) was 6.99, the pIC50 (HCT-116) was 6.00 and the pIC50 (A2780) was 6.48.
